The results in this text go back to ChEMBL document CHEMBL2331293, “Attenuating Staphylococcus aureus virulence gene regulation: a medicinal chemistry perspective” (J Med Chem, 2013).

The structures appear in SMILES notation. Positions of bridges follow the written chain, without caps; N, C: chain ends. Non-standard residues stand in square brackets, D forms with d. Residues, ends and D or L forms follow the SMILES beside them. *: point of attachment. X2 = O=C(c1ccccc1)c1ccc(OCCCC(=O)*)cc1; X1 = O=C(CCCOc1ccc(Cc2ccccc2)cc1)*; NMeF = CN[C@@H](Cc1ccccc1)C(=O)O; NMeL = CN[C@@H](CC(C)C)C(=O)O; NMeS = CN[C@@H](CO)C(=O)O; Abu = CC[C@H](N)C(=O)O; Dap = NC[C@H](N)C(=O)O; Ava = NCCCCC(=O)O; Mpa = O=C(O)CCS

Experiment [1] can be described thus: Inhibition of Staphylococcus aureus AgrC1.
Experiment [2] can be described thus: Inhibition of Staphylococcus aureus AgrC3.
A further experiment concerns Staphylococcus aureus. The experiment in a line: Inhibition of Staphylococcus aureus AgrC1-mediated RNA3 promoter activation at 12 uM.
Experiment [3] is described as follows: Inhibition of Staphylococcus aureus AgrC1-mediated RNA3 promoter activation.
Experiment [4] can be described thus: Inhibition of Staphylococcus aureus AgrC4.
Experiment [5] in a line: Inhibition of Staphylococcus aureus AgrC2.
Experiment [6] in a line: Activation of Staphylococcus aureus AgrC1.
Experiment [7] can be described thus: Activation of Staphylococcus aureus AgrC4.

`CCCCCCCc1cc(O)c2ccccc2[n+]1[O-]`: in experiment [1], the IC50 (in general, the concentration that inhibits the measured activity by half) came to 1300 nM.

Turning to `CC1CCCN(C(C(=O)Nc2ccc3c(c2)OCO3)c2ccccc2)C1` (stereo not given), in experiment [2], half-maximal inhibition (IC50) required 160 nM.

In experiment [2], `CC1CCN(C(C(=O)Nc2ccc3c(c2)OCO3)c2ccccc2)CC1` (stereo not given) registered an IC50 of 980 nM.

In the case of `CC1CCN(C(C(=O)Nc2ccc(C(C)C)cc2)c2ccc3c(c2)OCO3)CC1` (stereo not given), in experiment [2], the IC50 stood at 720 nM.

Consider `CC1CCCN(C(C(=O)Nc2ccc3c(c2)OCCO3)c2ccccc2)C1` (stereo not given), for which, in the experiment with Staphylococcus aureus, the inhibition (usually the percentage by which the read-out fell short of the control) is above 90%. Further, the IC50 in experiment [3] was found to be 100 nM; in experiment [2], 130 nM.

As for `O=C(Nc1ccc2c(c1)OCO2)C(c1ccccc1)N1CCCCC1` (stereo not given), in experiment [2], inhibition was half-maximal at 1260 nM (IC50).

As for `CCCCc1oc2ccccc2c1C(=O)c1ccc(O)cc1`, in experiment [1], the IC50 was determined as 540 nM.

The compound `CC(C)c1ccc(NC(=O)C(c2ccc3c(c2)OCO3)N2CCCCC2)cc1` (stereo not given) registered an IC50 in experiment [2] of 250 nM.

`COc1ccc(NC(=O)C(c2cc3c(cc2[N+](=O)[O-])OCO3)N2CC(C)CC(C)C2)cc1` (stereo not given): the IC50 in experiment [2] was determined as 1310 nM.

The compound `O=C(Nc1ccc2c(c1)OCO2)C(c1ccccc1)N1CCC(Cc2ccccc2)CC1` (stereo not given) had an IC50 in experiment [2] of 980 nM.

In turn, `CCOC(=O)c1c(C)oc2cc(-c3cc(Br)c(O)c(Br)c3)ccc12` gave an IC50 in experiment [1] of 780 nM.

On to `CC[C@H](C)[C@@H]1NC(=O)[C@H](Cc2ccccc2)NC(=O)[C@H](C)NC(=O)[C@@H](NC(C)=O)CSC(=O)[C@H](CCSC)NC1=O` (Ac-CAFIM; thioester 1-C), for which the IC50 in experiment [4] is 5 nM; in experiment [1], 5 nM; in experiment [2], 0.1 nM; in experiment [5], 5 nM.

Regarding `CC[C@H](C)[C@@H]1NC(=O)[C@H](Cc2ccccc2)NC(=O)[C@H](CC(=O)O)NC(=O)[C@@H](NC(C)=O)CSC(=O)[C@H](CCSC)NC1=O` (Ac-CDFIM; thioester 1-C), the response in experiment [6] was half-maximal at 5800 nM (EC50). Further, the IC50 is 240 nM in experiment [2] and 47 nM in experiment [5].

For the compound `CC(=O)N[C@H]1CSC(=O)[C@H](Cc2ccccc2)NC(=O)[C@H](CC(C)C)NC(=O)CNC(=O)CNC1=O` (Ac-CGGLF; thioester 1-C), the IC50 in experiment [1] is 77 nM; in experiment [5], 238 nM.

In the case of `CC(=O)N[C@H]1CSC(=O)[C@H](Cc2ccccc2)NC(=O)[C@H](CC(C)C)NC(=O)[C@H](CO)NC(=O)CNC1=O` (Ac-CGSLF; thioester 1-C), the figures for the IC50 in experiment [1] and in experiment [5] were 189 nM and 1160 nM, respectively.

`CC(=O)N[C@H]1CSC(=O)[C@H](Cc2ccccc2)NC(=O)[C@H](CC(C)C)NC(=O)CNC(=O)[C@H](CO)NC1=O` (Ac-CSGLF; thioester 1-C): the IC50 amounted to 40 nM in experiment [1] and 194 nM in experiment [5].

With `CC(=O)N[C@H]1CSC(=O)[C@H](Cc2ccccc2)NC(=O)[C@H](CC(C)C)NC(=O)[C@H](CO)NC(=O)[C@H](CO)NC1=O` (Ac-CSSLF; thioester 1-C), the IC50 in experiment [4] was 150 nM; in experiment [1], 260 nM; in experiment [2], 4 nM; in experiment [5], 230 nM.

With `CC(=O)N[C@H]1CSC(=O)[C@H](Cc2ccccc2)N(C)C(=O)[C@H](CC(C)C)NC(=O)[C@H](CO)NC(=O)[C@H](CO)NC1=O` (Ac-CSSL[NMeF]; thioester 1-C), the IC50 in experiment [1] and in experiment [5] was above 30000 nM throughout.

`CC(=O)N[C@H]1CSC(=O)[C@H](Cc2ccccc2)NC(=O)[C@H](CC(C)C)N(C)C(=O)[C@H](CO)NC(=O)[C@H](CO)NC1=O` (Ac-CSS[NMeL]F; thioester 1-C): the IC50 in experiment [1] and in experiment [5] was above 30000 nM in each case.

In the case of `CC(=O)N[C@H]1CSC(=O)[C@H](Cc2ccccc2)NC(=O)[C@H](CC(C)C)NC(=O)[C@H](CO)N(C)C(=O)[C@H](CO)NC1=O` (Ac-CS[NMeS]LF; thioester 1-C), the IC50 in experiment [1] was 319 nM; in experiment [5], 1050 nM.

For `CC[C@H](C)[C@@H]1NC(=O)[C@H](Cc2ccccc2)NC(=O)[C@H](Cc2ccc(O)cc2)NC(=O)[C@@H](NC(C)=O)CSC(=O)[C@H](CCSC)NC1=O` (Ac-CYFIM; thioester 1-C), the IC50 in experiment [4] was 4100 nM; in experiment [1], 930 nM; in experiment [2] it was 10 nM; in experiment [5], 8 nM.

Turning to `CC(=O)N[C@H]1CSC(=O)[C@H](Cc2ccccc2)NC(=O)[C@H](CC(C)C)NC(=O)CCCCNC1=O` (Ac-C[Ava]LF; thioester 1-C), the IC50 in experiment [1] was 1140 nM; in experiment [5] it was 50700 nM.

`CC(=O)N[C@H]1CSC(=O)[C@H](Cc2ccccc2)NC(=O)[C@H](CC(C)C)NC(=O)[C@H](CO)NC(=O)[C@H](CO)N(C)C1=O` (Ac-C[NMeS]SLF; thioester 1-C): the IC50 came out at 639 nM in experiment [1] and 7880 nM in experiment [5].

As for `CC(=O)N[C@H]1CNC(=O)[C@H](Cc2ccccc2)NC(=O)[C@H](CC(C)C)NC(=O)[C@H](CO)NC(=O)[C@H](CO)NC1=O` (Ac-[Dap]SSLF; lactam 1-C), the figures for the IC50 in experiment [1] and in experiment [5] were 1390 nM and 167000 nM, respectively.

On to `CC[C@H](C)[C@@H]1NC(=O)[C@H](Cc2ccccc2)NC(=O)[C@H](C)NC(=O)[C@@H](NC(=O)[C@@H](NC(=O)[C@H](CO)NC(=O)[C@@H](N)Cc2ccc(O)cc2)[C@@H](C)O)CSC(=O)[C@H](CCSC)NC1=O` (H-YSTCAFIM; thioester 4-C), for which the IC50 in experiment [4] was found to be 3 nM; in experiment [1], 5 nM; in experiment [2], 0.3 nM; in experiment [5], 8 nM.

As for `CC[C@H](C)[C@@H]1NC(=O)[C@H](Cc2ccccc2)NC(=O)[C@H](CC(=O)O)NC(=O)[C@@H](NC(=O)[C@@H](NC(=O)[C@H](CO)NC(=O)[C@@H](N)Cc2ccc(O)cc2)[C@@H](C)O)CSC(=O)[C@H](CCSC)NC1=O` (H-YSTCDFIM; thioester 4-C), the EC50 (usually the concentration that produces a half-maximal response) in experiment [6] came out at 28 nM; in experiment [7] it was 26000 nM. Besides, the results for the IC50 in experiment [2] and in experiment [5] were 3 nM and 25 nM, respectively.

Take `CC[C@@H]1NC(=O)[C@@H](NC(=O)[C@@H](NC(=O)[C@H](CO)NC(=O)[C@@H](N)Cc2ccc(O)cc2)[C@@H](C)O)CSC(=O)[C@H](CCSC)NC(=O)[C@H]([C@@H](C)CC)NC(=O)[C@H](Cc2ccccc2)NC1=O` (H-YSTC[Abu]FIM; thioester 4-C): the values for the IC50 in experiment [1] and in experiment [5] were 137 nM and 2.8 nM, respectively.

Take `CC[C@H](C)[C@@H]1NC(=O)[C@H](Cc2ccccc2)NC(=O)[C@H](C)NC(=O)[C@@H](NC(=O)[C@@H](NC(=O)[C@H](CO)NC(=O)CCCOc2ccc(Cc3ccccc3)cc2)[C@@H](C)O)CSC(=O)[C@H](CCSC)NC1=O` (X1-STCAFIM; thioester 3-C): the IC50 in experiment [1] was found to be 295 nM; in experiment [5], 19 nM.

With `CC[C@H](C)[C@@H]1NC(=O)[C@H](Cc2ccccc2)NC(=O)[C@H](C)NC(=O)[C@@H](NC(=O)[C@@H](NC(=O)[C@H](CO)NC(=O)CCCOc2ccc(C(=O)c3ccccc3)cc2)[C@@H](C)O)CSC(=O)[C@H](CCSC)NC1=O` (X2-STCAFIM; thioester 3-C), the IC50 was found to be 303 nM in experiment [1] and 18 nM in experiment [5].

Turning to `CC(C)C[C@@H]1NC(=O)[C@H](CO)NC(=O)[C@H](CO)NC(=O)CCSC(=O)[C@H](Cc2ccccc2)N(C)C1=O` ([Mpa]SSL[NMeF]; thioester 1-C), the IC50 came out at 1680 nM in experiment [1] and 47300 nM in experiment [5].

As for `CCc1oc2ccccc2c1C(=O)c1ccc(O)cc1` [BENZARONE], the IC50 in experiment [1] stood at 1290 nM.

Regarding `CCc1oc2ccccc2c1C(=O)c1cc(Br)c(O)c(Br)c1` [BENZBROMARONE], in experiment [1], inhibition was half-maximal at 130 nM (IC50).

`CC(C)c1ccc(S(=O)(=O)c2nnn3c2nc(O)c2ccccc23)cc1` [SAVIRIN] registered an IC50 in experiment [1] below 1000 nM.
